Format in all cases: cell-based
Assay [1] concerns the target S6K1 (Homo sapiens, UniProt P23443). Description: S6K1 protein level in HEK293 cells, immunoblot. Set-up: reduced endogenous SGK isoform or S6K1 expression when administered to HEK293 cells for 48 h; endogenous in cells; host or cells: HEK293. On the procedure:
(§1) A medium length linker composed of three PEG units was used in the first instance (Figure 1B and C). […] After 48 h of PROTAC treatment, cell lysates were analyzed by immunoblot analysis, and protein expression under each condition was quantified relative to the DMSO-only control. […] DAT1 reduced SGK3 expression by 60% at 1 μM and 75% at 10 μM after 48 h (Figure 1D). […] As expected, inhibition of CUL2 neddylation by means of the inhibitor MLN4924 (3 μM) or proteasome inhibition (MG132, 50 μM) blocked DAT1-induced degradation of SGK3 (Figure S1C).
(§2) All cell treatments were carried out as described in figure legends, to a final DMSO concentration of 0.1% (v/v). Lysates were quantified. Immunoblotting was performed using standard procedures, described in brief below. Lysate concentration was quantified by Bradford Assay, and 10 μg of lysate was loaded in the LDS sample buffer for SDS-PAGE electrophoresis on Novex 4–12% Bis–Tris gels. Proteins were electrophoretically transferred onto nitrocellulose membranes (Amersham Protran 0.45 μm NC; GE Healthcare) at 80 V for 80 min on ice in transfer buffer. Transferred membranes were blocked with 5% (w/v) nonfat dry milk dissolved in TBS-T [20 mM Tris/HCl, pH 7.5, 150 mM NaCl, and 0.1% (v/v) Tween 20] at RT for 30 min, before incubation with the primary antibody overnight at 4 °C. The signal was produced with near-infrared secondary antibodies and detected using a Licor Biosciences Odyssey System, and the signal was quantified in Image Studio Lite.

Assay [2] has as its target T1, SGK2 (Homo sapiens, UniProt Q9HBY8).
T1 construct: reduced endogenous SGK isoform or S6K1 expression when administered to HEK293 cells for 48 h; endogenous in cells; host or cells: HEK293
The assay is described as follows: SGK2 protein level in HEK293 cells, immunoblot. The following applies: HEK293, 48 h. How it is done:
as §1
as §2, with “Transferred membranes were blocked with 5% (w/v) nonfat dry milk dissolved in TBS-T [20 mM Tris/HCl, pH 7.5, 150 mM NaCl, and 0.1% (v/v) Tween 20] at RT for 30 min, before incubation with the primary antibody overnight at 4 °C.” left out
A general note: A western blot detects proteins with antibodies after separation by electrophoresis.

The test system of assay [3] is mTORC1-mediated phosphorylation of S6K1 at Thr389. Description: mTORC1 signaling in ZR-75-1 cells treated with PI3K or Akt inhibitor, immunoblot. The note with it: ZR-75-1, 5 days 1 μM GDC0941 or AZD5363; 0.3 μM. On the procedure:
We therefore aimed to investigate the effect that degradation of SGK3 would have on this resistance pathway and whether SGK3-PROTAC1 treatment could reverse inhibitor resistance. To investigate the effect of SGK3-PROTAC1 under these conditions, we treated CAMA-1 (Figure 5A,C) or ZR-75-1 (Figure 5B,D) for 5 days with either a class 1A PI3K inhibitor (GDC0941 1 μM;[38]Figure 5A,B) or an Akt inhibitor (AZD5363, 1 μM;[39]Figure 5C,D). These cells were treated with SGK3-PROTAC1 or cisSGK3-PROTAC1 (0.3 μM) for either 5 days in combination with the inhibitors or 8 h before lysis.
Figure 5 SGK3-PROTAC1-mediated degradation of SGK3 inhibits Akt-independent activation of mTORC1 in cancer cell lines treated with Akt or PI3K inhibitors. CAMA-1 (A, C) or ZR-75-1 (B, D) were treated for 5 days with 1 μM GDC0941 (A, B) or 1 μM AZD5363 (C, D). […]
All cell treatments were carried out as described in figure legends, to a final DMSO concentration of 0.1% (v/v). Lysates were quantified. […] Lysate concentration was quantified by Bradford Assay, and 10 μg of lysate was loaded in the LDS sample buffer for SDS-PAGE electrophoresis on Novex 4–12% Bis–Tris gels. […] The signal was produced with near-infrared secondary antibodies and detected using a Licor Biosciences Odyssey System, and the signal was quantified in Image Studio Lite.

Assay [4] deals with T2, SGK3 (Homo sapiens, UniProt Q96BR1).
T2 sequence (Q96BR1 1-496): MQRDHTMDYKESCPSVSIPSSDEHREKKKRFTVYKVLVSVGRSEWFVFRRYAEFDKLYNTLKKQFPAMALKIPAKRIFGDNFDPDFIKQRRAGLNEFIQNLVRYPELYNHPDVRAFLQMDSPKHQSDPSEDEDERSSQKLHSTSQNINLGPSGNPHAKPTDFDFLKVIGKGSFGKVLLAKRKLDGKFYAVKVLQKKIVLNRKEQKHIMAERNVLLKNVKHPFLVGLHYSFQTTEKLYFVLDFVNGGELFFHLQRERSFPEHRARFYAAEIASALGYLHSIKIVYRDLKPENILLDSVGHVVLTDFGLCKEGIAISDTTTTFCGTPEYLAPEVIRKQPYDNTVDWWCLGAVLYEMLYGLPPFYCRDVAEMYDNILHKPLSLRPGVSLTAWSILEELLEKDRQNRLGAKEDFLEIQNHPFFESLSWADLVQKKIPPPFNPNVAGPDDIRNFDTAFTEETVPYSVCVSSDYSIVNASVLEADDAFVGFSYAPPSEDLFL
Description: SGK3 degradation in CAMA-1 cells, immunoblot. The following applies: for SGK3 expression: CAMA-1, 5 days 1 μM GDC0941 or AZD5363, 0.3 μM for 5 days or 8 h. How it is done: Figure 3 Characterization of cellular activities of SGK3-PROTAC1 and cisSGK3-PROTAC1. (A) HEK293 cells were first treated for 8 h with 0.03–3 μM SGK3-PROTAC1 and cisSGK3-PROTAC1. One hour before lysis, cells were treated with 3 μM AZD5363. Lysates were subjected to immunoblot analysis with the indicated antibodies. […] Lysates were subjected to immunoblot analysis with the indicated antibodies. (C) HEK293 cells were treated for up to 48 h with SGK3-PROTAC1 (0.3 μM), and lysates were analyzed by immunoblot analysis using the indicated antibodies. (D) HEK293 cells were treated for 24 h with SGK3-PROTAC1. Cells were washed three times with DMEM to wash out the compound, and recovery of SGK3 expression protein was analyzed by immunoblot analysis. (E–G) As in A except that CAMA-1 (E), ZR-75-1 (F), and JIMT-1 (G) cells were employed rather than HEK293 cells.
Figure 5 SGK3-PROTAC1-mediated degradation of SGK3 inhibits Akt-independent activation of mTORC1 in cancer cell lines treated with Akt or PI3K inhibitors. CAMA-1 (A, C) or ZR-75-1 (B, D) were treated for 5 days with 1 μM GDC0941 (A, B) or 1 μM AZD5363 (C, D). Cells were treated with the compounds indicated for either 5 days or 8 h before lysis; cells were treated with the compounds indicated. Cell lysates were subject to immunoblot analysis with the indicated antibodies.
as §2

Where only a bound is given, the exact number is not on record here.

Chain of S6K1 (P23443 whole entry, canonical isoform): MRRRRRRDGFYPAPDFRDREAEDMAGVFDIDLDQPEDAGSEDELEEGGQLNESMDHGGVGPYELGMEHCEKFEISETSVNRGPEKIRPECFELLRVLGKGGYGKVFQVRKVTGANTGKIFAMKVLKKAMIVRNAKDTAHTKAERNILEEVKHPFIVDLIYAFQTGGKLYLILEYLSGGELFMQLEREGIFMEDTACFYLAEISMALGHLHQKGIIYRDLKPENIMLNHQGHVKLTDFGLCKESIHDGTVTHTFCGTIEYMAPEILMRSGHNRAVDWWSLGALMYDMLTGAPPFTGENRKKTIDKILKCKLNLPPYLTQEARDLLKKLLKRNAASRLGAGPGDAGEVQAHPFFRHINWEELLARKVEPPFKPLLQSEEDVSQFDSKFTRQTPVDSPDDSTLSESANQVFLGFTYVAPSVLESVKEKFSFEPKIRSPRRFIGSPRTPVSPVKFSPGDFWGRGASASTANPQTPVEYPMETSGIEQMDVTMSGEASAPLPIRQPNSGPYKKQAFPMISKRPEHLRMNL
T1 sequence (Q9HBY8 whole entry, canonical isoform): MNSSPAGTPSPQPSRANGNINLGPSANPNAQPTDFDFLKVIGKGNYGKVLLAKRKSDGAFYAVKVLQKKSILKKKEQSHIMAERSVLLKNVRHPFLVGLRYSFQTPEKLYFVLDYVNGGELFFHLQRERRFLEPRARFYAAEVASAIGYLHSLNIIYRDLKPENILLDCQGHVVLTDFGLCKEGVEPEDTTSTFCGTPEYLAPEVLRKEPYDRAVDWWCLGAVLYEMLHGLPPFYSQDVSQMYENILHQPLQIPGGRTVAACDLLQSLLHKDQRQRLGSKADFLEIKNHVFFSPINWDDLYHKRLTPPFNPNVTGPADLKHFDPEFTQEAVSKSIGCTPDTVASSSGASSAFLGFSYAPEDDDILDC

As for `Cc1ccc(F)c(S(=O)(=O)Nc2ccc(-c3nc(OC[C@H]4CN(CCOCCOCCOCC(=O)N[C@H](C(=O)N5C[C@H](O)C[C@H]5C(=O)NCc5ccc(-c6scnc6C)cc5)C(C)(C)C)CCO4)c4cn[nH]c4n3)cc2)c1` [DAT1], in assay [1] (HEK293, 48 h, up to 10 μM), the S6K1 level entry was “not significantly impacted”. Further, the SGK2 level entry in assay [2] (up to 10 μM) is “not significantly impacted”.

Consider `Cc1ccc(F)c(S(=O)(=O)Nc2ccc(-c3nc(OC[C@H]4CN(CCCCCCOCCOCCOCC(=O)N[C@H](C(=O)N5C[C@H](O)C[C@H]5C(=O)NCc5ccc(-c6scnc6C)cc5)C(C)(C)C)CCO4)c4cn[nH]c4n3)cc2)c1` [SGK3-PROTAC1], for which the “phosphorylation of S6K1 at Thr389” value in assay [3] is “suppressed”. The “concentration inducing degradation of SGK3” value in assay [4] (CAMA-1, 8 h) was more than 0.1 µM. Besides, the SGK3 expression result in assay [4] is given as “substantially reduced”. Also, the S6K1 degradation result in assay [1] (HEK293, 8 h, doses of up to 1 μM) is given as “no degradation”; in assay [1] (HEK293, 48 h, 1–10 μM), “moderate degradation”. The S6K1 level result in assay [1] (HEK293, 48 h, 0.1 μM) is recorded as “without effecting”. In assay [2] (0.1 μM), the SGK2 level result is on record as “without effecting”.

As for `Cc1ccc(F)c(S(=O)(=O)Nc2ccc(-c3nc(OC[C@H]4CN(CCCCCCOCCOCCOCC(=O)N[C@H](C(=O)N5C[C@@H](O)C[C@H]5C(=O)NCc5ccc(-c6scnc6C)cc5)C(C)(C)C)CCO4)c4cn[nH]c4n3)cc2)c1` [cisSGK3-PROTAC1], in assay [3], the “phosphorylation of S6K1 at Thr389” value is “no significant effect”. Further, the “degradation of SGK3” value in assay [4] (CAMA-1, 8 h, 0.03–3 μM) is “no impact”. Besides, the SGK3 expression entry in assay [4] is on record as “no significant effect”.

These data come from PMC6757289, “Design and Characterization of SGK3-PROTAC1, an Isoform Specific SGK3 Kinase PROTAC Degrader” (ACS Chemical Biology, 2019).
